Patent US20230364049A1, “COMBINATION OF P2Y6 INHIBITORS AND IMMUNE CHECKPOINT INHIBITORS” (VIB VZW, priority 2020, published 2023)

Experiments:
[1] = system: Panc02 tumors; test: Subcutaneously implanted Panc02 tumor model, with FACS analysis of tumors; type: in vivo, mice
Procedure: 4×10^6 Panc02 cells were injected subcutaneously (s.c.) in the right flank of the mouse in a final suspension of 200 μI PBS. Tumor volumes were measured at least three times per week with a calliper and calculated using the formula: Volume (mm^3): ((Width(mm))^2×Length(mm))/2. 0.1×10^6 KPC1245 cells were injected orthotopically into the head of the pancreas in 20 μl of PBS.
(§1) Mice were randomized and treated, at indicated time points, intraperitoneally (i.p.) with 10 mg/kg of α-PD-1 (BioXcell) or control IgG from rat serum (Sigma-Aldrich), 3 mg/kg/day MRS2578 (Selleck Chemicals) or control vehicle. At the end stage, tumor weight was measured.
(§2) Mice were monitored and weighed continuously during the experiments. Mice showing symptoms of illness, that lost 20% of initial body weight, peritoneal leakage or with ulcerated tumors were sacrificed and excluded from the experiments. At the end stage, tumor weight was registered and samples were collected for histological examination, metabolomics and/or FACS/sorter analysis.
Tumor-bearing mice were sacrificed by cervical dislocation and perfused with saline to remove circulating immune cells. Tumors were harvested and minced in αMEM medium (Lonza) supplemented with 5% FBS, 1% Pen/Strep, 50 μM β-mercaptoethanol (Gibco), 5U/mL DNase I (Qiagen), 0.85 mg/mL Collagenase V (Collagenase from Clostridium histolyticum, Sigma-Aldrich), 1.25 mg/mL Collagenase D (Collagenase from Clostridium histolyticum, Roche) and 1 mg/mL Dispase II (Gibco) and incubated for 30 minutes at 37° C. The digested tissue was filtered using a 70 μm pore sized mesh strainer and cells were centrifuged 5 minutes at 300 xg. The samples were resuspended in Red Blood Cell Lysing Buffer Hybri-Max™ (Sigma-Aldrich) for 30 seconds, inactivated with FACS buffer (PBS containing 2% FBS and 2 mM EDTA) and centrifuged. The cell pellets were resuspended in FACS buffer and filtered with a 40 μm pore sized mesh strainer. Cells were resuspended in FACS buffer and for the intracellular measurement of interferon γ (IFN-γ) and granzyme B (GZMB), single-cell suspensions were culture in RPMI medium supplemented with 10% FBS, 1% glutamine, 1% Pen/Strep and stimulated with phorbol 12-myristate 13-acetate (PMA)/ionomycin Cell Stimulation Cocktail (eBioscience™, 1:500) in the presence of Brefeldin A (BioLegend®, 1:1000) or Monensin (eBioscience™, 1:1000) for 4 h at 37° C. Cells were then incubated for 15 minutes at 4° C. with Mouse BD Fc Block purified Rat Anti-Mouse CD16/CD32 mAb (BD Pharmingen™) and stained with the following antibodies for 30 minutes at 4° C.: Fixable viability dye (eFluor™ 506, eBioscience™), anti-CD45 (30-F11, APC-Cy7 or FITC, BioLegend®), anti-CD11b (M1/70, PerCP-Cy5.5, BioLegend®; eFluor™ 450, eBioscience™; or PE, BD Biosciences), anti-TCR-13 chain (H57-597, BV421, BD Biosciences), anti-CD4 (RM4-5, PE, BioLegend®), anti-CD8 (53-6.7, PE-Cy7, eBioscience™ or 53-6.7, APC-Cy7, BioLegend®), anti-CD69 (H1.2F3, APC, eBioscience™), anti-F4/80 (BM8, Alexa Fluor 488, eBioscience™; PerCP-Cy5.5, BioLegend®; or BV421, BioLegend®), anti-IFN-γ (XMG1.2, PE-Cy7, eBioscience™), anti-GZMB (GB11, Alexa Fluor 647, BioLegend®), anti-MHC-II (M5/114.15.2, APC, eBioscience™; or PerCP-eFluor 710, eBioscience™), anti-CD11c (N418, PE-Cy7, eBioscience™), anti-CD206 (MR5D3, Alexa Fluor 647, Bio-Rad), anti-Ly-6G (1A8, PE, BD Pharmingen™) anti-CD335 (NKp46) (29A1.4, APC, BioLegend®), anti-Foxp3 (FJK-16s, APC, eBioscience™) and anti-CD25 (PC61.5, PE-Cy7, eBioscience™). Cells were subsequently washed and resuspended in cold FACS buffer before FACS analysis or flow sorting by a FACS Verse or FACS Aria (BD Biosciences), respectively.

[2] = system: murine bone marrow derived macrophages (BMDMs); test: BMDM migration assay (Transwell, UDP as chemoattractant); type: cell-based; conditions: 10 μM MRS2578, 100 μM UDP in bottom chamber, 6 h, FIG. 4
Procedure: In the macrophage migration assays, 1×10^5 murine BMDMs were seeded on […] polycarbonate membranes (Transwell; Costar) with or without 10 μM MRS2578. The bottom chambers contained DMEM with or without 100 μM UDP, 100 μM Uridine (Sigma-Aldrich) or 100 μM Cytidine (Sigma-Aldrich), or alternatively, conditioned media from NT or CDA KD cells.
After 6 h incubation, the cells were removed from the top of each membrane with a cotton stick and migrated cells were fixed in 4% PFA, washed in PBS, stained with crystal violet (2.5 g/L) and Hoechst, and mounted on glass slides with ProLong Gold mounting medium without DAPI. Images were acquired with Olympus BX41 microscope and CellSense imaging software.

[3] = Tolerability / body weight of treated Panc02 tumor-bearing mice; type: in vivo; conditions: MRS2578 3 mg/kg/day i.p.; FIG. 7
Procedure: as §1, §2

[4] = Panc02 tumors, MRS2578 vs vehicle, FIG. 6

S=C=Nc1cccc(NC(=S)NCCCCNC(=S)Nc2cccc(N=C=S)c2)c1 [MRS2578, N,N-1,4-butanediylbis-N-(3-isothiocyanatophenyl) thiourea]
Tumor volume ([1]; MRS2578 3 mg/kg/day i.p. combined to α-PD-1 therapy (10 mg/kg i.p.), sc Panc02, FIG. 5): decrease
Tumor weight ([1]; MRS2578 3 mg/kg/day i.p. combined to α-PD-1 therapy (10 mg/kg i.p.), sc Panc02, end stage, FIG. 5): decrease
Infiltration of M2 polarized TAMs into Panc02 tumors ([1]; Panc02 tumors, MRS2578): reduced infiltration
Infiltration of tumor-associated macrophages (TAMs) into Panc02 tumors ([1]; Panc02 tumors, MRS2578): Reduced infiltration
Activation of CD8+ T cells in the tumors (GZMB, FACS) [1, 4]: more activated
M2 polarization of macrophages (CD206 expression by FACS) [1, 4]: reduction of M2 polarization
Migration of BMDMs towards UDP [2]: abrogated
Migration of BMDMs towards UDP ([2]; listed as MRS 2578): specifically inhibited
Harmful effect on mice (evolution of body weight) [3]: no harmful effect
